Where two headings read alike, the source gives them in different places.
Key:
[1] = tested on: Human naïve B cells; assay: Human primary B cell proliferation assay; type: cell-based; conditions: 5 μg/ml α-IgM 72 hours, 3H-thymidine incorporation
Protocol: Human naïve B cells were purified from 100 mL whole blood using a MACS purification kit designed to isolate CD19+, IgD+ cells by negative selection. Purified naïve B cells were resuspended in RPMI complete and stimulated with 5 μg/ml α-IgM for 72 hours. ^3H-Thymidine was included in the culture media for the final 16 h, cells were harvested and ^3H incorporation measured. Inhibition of B cell proliferation correlates with inhibition of BTK substrate phosphorylation after α-IgM stimulation.

[2] = target: JAK3 (Homo sapiens (Human), UniProt P52333); assay: Omnia assay for potency assessment against the active form of JAK3; type: biochemical; conditions: read-out: JAK3 Inhibition
Chain of JAK3 (P52333 whole entry): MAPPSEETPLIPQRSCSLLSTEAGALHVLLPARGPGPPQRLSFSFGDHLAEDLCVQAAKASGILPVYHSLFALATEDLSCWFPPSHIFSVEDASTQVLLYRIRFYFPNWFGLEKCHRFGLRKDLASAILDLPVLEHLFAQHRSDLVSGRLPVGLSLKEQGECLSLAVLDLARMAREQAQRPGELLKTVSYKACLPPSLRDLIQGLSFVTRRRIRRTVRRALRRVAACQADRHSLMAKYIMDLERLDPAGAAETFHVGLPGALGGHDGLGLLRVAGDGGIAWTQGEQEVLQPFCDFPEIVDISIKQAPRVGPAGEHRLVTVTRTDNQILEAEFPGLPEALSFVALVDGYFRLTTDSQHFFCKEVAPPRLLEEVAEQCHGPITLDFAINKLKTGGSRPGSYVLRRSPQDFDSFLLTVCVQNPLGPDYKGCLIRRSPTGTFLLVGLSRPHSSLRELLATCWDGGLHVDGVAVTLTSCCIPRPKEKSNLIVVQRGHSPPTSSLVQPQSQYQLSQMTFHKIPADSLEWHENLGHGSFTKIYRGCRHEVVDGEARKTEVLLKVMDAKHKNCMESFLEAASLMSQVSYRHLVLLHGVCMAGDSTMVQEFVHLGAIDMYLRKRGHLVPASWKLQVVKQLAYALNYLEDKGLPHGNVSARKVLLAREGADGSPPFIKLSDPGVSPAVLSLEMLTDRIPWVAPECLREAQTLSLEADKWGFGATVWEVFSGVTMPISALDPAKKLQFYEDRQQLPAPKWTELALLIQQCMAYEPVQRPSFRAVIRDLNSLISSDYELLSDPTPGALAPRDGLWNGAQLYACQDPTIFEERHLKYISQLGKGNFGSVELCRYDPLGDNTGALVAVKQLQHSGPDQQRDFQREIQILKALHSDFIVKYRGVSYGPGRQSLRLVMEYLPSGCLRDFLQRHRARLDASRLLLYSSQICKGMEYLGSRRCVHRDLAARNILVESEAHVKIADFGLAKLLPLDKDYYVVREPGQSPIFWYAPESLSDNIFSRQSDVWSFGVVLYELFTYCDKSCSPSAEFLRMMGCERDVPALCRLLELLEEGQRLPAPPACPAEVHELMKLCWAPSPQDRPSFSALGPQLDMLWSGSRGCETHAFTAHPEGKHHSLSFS
Protocol: Briefly, 10× stocks of EGFR-WT (PV3872) from Invitrogen and EGFR-T790M/L858R (40350) from BPS Bioscience, San Diego, Calif., 1.13×ATP (AS001A) and appropriate Tyr-Sox conjugated peptide substrates (KCZ1001) were prepared in 1× kinase reaction buffer consisting of 20 mM Tris, pH 7.5, 5 mM MgCl2, 1 mM EGTA, 5 mM β-glycerophosphate, 5% glycerol (10× stock, KB002A) and 0.2 mM DTT (DS001A).
The Omnia Assay Protocol for potency assessment against JAK3 was performed in a substantially similar manner as that described in Example 251 above except that the modified JAK3-optimized reagent conditions were:
[JAK3]=5 nM, [ATP]=5 μM, [Y12-Sox]=5 μM (ATP KMapp˜5 μM).

[3] = tested on: B cell lymphoma cell lines; assay: B cell lymphoma proliferation assay; type: cell-based
[4] = target: BTK (Rattus norvegicus, UniProt Q5S255); assay: BTK occupancy from in vivo samples by ELISA; conditions: po, rats dosed orally 30 mg/kg
Chain of BTK (Rattus norvegicus, UniProt Q5S255) (Q5S255 1-660): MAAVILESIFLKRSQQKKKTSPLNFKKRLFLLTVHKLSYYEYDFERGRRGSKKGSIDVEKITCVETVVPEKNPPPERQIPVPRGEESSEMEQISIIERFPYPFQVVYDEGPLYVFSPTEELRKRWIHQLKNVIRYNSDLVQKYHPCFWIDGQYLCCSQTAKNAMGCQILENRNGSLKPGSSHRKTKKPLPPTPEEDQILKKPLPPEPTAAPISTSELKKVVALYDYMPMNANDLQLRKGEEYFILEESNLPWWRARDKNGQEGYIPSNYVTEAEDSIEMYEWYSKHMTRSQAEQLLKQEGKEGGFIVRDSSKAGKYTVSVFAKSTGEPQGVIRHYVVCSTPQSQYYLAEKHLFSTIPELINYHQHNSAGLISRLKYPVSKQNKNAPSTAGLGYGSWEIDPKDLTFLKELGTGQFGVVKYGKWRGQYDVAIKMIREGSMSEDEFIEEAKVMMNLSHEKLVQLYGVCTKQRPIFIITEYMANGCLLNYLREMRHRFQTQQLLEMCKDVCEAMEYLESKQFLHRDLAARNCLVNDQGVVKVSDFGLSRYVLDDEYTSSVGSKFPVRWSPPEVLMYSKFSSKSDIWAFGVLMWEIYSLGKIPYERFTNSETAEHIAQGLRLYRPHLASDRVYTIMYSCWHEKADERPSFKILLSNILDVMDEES
Protocol: All samples were prepared with equal concentrations of Biorad lysis buffer (Hercules, Calif., USA), 0.5% bovine serum albumin in PBS with 0.05% Tween-20 to give a final concentration of 1 μM I-215. Samples were incubated in a mixing plate for 1 hr at room temperature while shaking to allow probe compound I-215 to bind to free BTK. After incubation with I-215, samples were added to a washed, streptavidin-coated ELISA plate (Pierce, Rockford, Ill., USA) and incubated for 1 hr at room temperature while shaking. The plate was then washed with PBS containing 0.05% Tween-20 using an automatic plate washer. Anti-BTK antibody was prepared at 1:1000 dilution in 0.5% BSA in PBS (0.05% Tween-20) and added to the ELISA plate. The plate was incubated for 1 hr at room temperature while shaking. The plate was washed as described above and the secondary HRP antibody was prepared at 1:5000 dilution in 0.5% BSA in PBS (0.05% Tween-20). The plate was incubated and washed as described above. TMB was added to the plate, and OD650 was monitored until reaching 1 OD unit. The reaction was then stopped with addition of H2SO4. The plate was analyzed using Gen 5 software, and a 4 Parameter Logistic curve was employed to quantitate samples. Recombinant BTK (Invitrogen, Carlsbad, Calif., USA) was used for the standard curve.
Rats were dosed orally with 30 mg/kg of compound and spleens were harvested either 2 or 24 hours after compound treatment. Rat spleens were disrupted between two microscope slides coated with frosted glass to recover single cell suspensions. Red blood cells were lysed by incubating with RBC lysis buffer (Boston BioProducts) for 2 minutes at room temperature, the cells were then resuspended in RPMI complete media and pelleted by centrifugation. Rat B cells were isolated by positive selection with B220+ antibody-magnetic bead conjugates, purified by MACS column and lysed in Bio-Rad lysis buffer at a concentration of 10 million cells/100 μl. Lysates were analyzed employing the biotinylated probe compound I-215 in an ELISA protocol as described in detail in Example 278.

[5] = target: T1, BTK (Homo sapiens (Human), UniProt Q06187); assay: Washout experiment with Ramos cells; type: cell-based; conditions: 100 nM compound 1 hour, then washout
T1 sequence (Q06187 whole entry): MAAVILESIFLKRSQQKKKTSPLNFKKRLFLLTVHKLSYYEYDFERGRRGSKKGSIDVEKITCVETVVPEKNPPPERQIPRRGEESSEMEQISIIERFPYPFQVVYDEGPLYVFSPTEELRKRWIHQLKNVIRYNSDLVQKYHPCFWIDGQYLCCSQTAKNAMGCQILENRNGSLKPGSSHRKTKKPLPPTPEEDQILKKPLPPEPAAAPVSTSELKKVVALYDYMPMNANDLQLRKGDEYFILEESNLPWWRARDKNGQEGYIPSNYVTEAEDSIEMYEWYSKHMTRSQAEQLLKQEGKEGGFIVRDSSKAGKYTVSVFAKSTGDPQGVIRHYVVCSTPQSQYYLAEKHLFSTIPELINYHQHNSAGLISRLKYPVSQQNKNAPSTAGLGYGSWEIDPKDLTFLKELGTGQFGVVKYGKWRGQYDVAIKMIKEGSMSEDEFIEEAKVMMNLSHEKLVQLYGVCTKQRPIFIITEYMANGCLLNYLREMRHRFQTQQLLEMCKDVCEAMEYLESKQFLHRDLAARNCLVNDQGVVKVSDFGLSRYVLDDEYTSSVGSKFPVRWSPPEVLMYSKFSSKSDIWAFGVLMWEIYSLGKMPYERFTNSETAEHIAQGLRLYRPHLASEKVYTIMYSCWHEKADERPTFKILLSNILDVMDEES
Protocol: Ramos cells were serum starved for one hour in RPMI media +1% glutamine at 37° C. After starvation, Ramos cells were treated with 100 nM compound diluted in serum free RPMI media for 1 hour. After compound treatment, the media was removed and cells were washed with compound-free media. Subsequently, Ramos cells were washed every 2 hours and resuspended in fresh compound-free media. Cells were collected at specified timepoints, treated with 1 ug anti-human IgM (Southern Biotech cat #2022-01) for 10 minutes on ice to induce BCR signaling and then washed in PBS. Ramos cells were then lysed in Cell Extraction Buffer (Invitrogen FNN0011) supplemented with Roche complete protease inhibitor tablets (Roche 11697498001) and phosphatase inhibitors (Roche 04 906 837 001) and 18 ug total protein lysate was loaded in each lane. Inhibition of BTK kinase activity was assayed by measuring its substrate (PLCγ2) phosphorylation by western blot with phospho-specific antibodies from Cell Signaling Technologies cat #3871. The results of this experiment with compounds I-2, I-4 and I-7 are depicted in FIGS. 1, 2 and 3.

[6] = target: T1, BTK; assay: Mass spectrometry for BTK (covalent modification of intact protein); type: binding; conditions: 1 hr, 10x fold excess of compound
Protocol: Intact BTK was incubated for 1 hr at a 10× fold excess of I-7 to protein. Aliquots (2 μl) of the samples were diluted with 10 μl of 0.1% TFA prior to micro C4 ZipTipping directly onto the MALDI target using Sinapinic acid as the desorption matrix (10 mg/ml in 0.1% TFA:Acetonitrile 20:80).

[7] = target: EGFR-WT (Homo sapiens (Human), UniProt P00533); assay: Omnia assay for potency assessment against EGFR (WT); type: biochemical; conditions: wild-type EGFR; read-out: EGFR Wild Type Inhibition
[8] = target: T1, BTK; assay: Omnia assay for potency assessment against BTK; type: biochemical; conditions: [BTK]=5 nm; read-out: BTK Inhibition
Protocol: Omnia Assay Protocol for Potency Assessment Against BTK
The modified BTK-optimized reagent conditions for the above protocol are:
[BTK]=5 nm, [ATP]=40 mM, [Y5-Sox]=10 mM (ATP KMapp˜36 mM).

[9] = target: ITK (Homo sapiens (Human), UniProt Q08881); assay: Omnia assay for potency assessment against active forms of ITK kinase; type: biochemical; conditions: [ITK]=10 nM, [ATP]=25 μM, [Y6-Sox]=10 μM; read-out: ITK Inhibition
Chain of ITK (Q08881 whole entry): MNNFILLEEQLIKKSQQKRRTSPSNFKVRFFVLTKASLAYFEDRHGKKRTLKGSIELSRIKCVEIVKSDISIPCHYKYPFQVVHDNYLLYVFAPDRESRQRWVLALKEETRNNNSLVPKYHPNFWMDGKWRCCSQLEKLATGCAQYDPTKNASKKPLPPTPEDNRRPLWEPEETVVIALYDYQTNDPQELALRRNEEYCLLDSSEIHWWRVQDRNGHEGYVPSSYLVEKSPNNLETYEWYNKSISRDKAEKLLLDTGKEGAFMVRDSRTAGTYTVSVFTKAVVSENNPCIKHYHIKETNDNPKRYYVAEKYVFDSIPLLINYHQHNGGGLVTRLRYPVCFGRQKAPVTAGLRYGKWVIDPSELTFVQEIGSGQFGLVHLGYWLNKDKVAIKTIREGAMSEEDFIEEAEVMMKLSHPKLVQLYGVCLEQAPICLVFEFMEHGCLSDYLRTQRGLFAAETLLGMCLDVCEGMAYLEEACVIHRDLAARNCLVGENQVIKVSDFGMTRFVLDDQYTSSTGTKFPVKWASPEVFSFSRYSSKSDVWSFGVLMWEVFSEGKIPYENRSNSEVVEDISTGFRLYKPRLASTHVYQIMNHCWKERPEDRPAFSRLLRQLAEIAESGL
Protocol: [ITK]=10 nM, [ATP]=25 μM, [Y6-Sox]=10 μM (ATP KMapp=33 μM).

[10] = Homo sapiens, DOHH-2, DOHH2 B cell lymphoma cell line, read-out: EC50 (μM) DOHH2
[11] = Homo sapiens, WSUDLCL2, WSU-DLCL2 B cell lymphoma cell line, read-out: EC50 (μM) WSU-DLCL2
[12] = DHL4 B cell lymphoma cell line, read-out: EC50 (μM) DHL4

Row | Compound | IC50 [2] | EC50 [3, 10] | EC50 [3, 11] | BTK Inhibition Type [5] | covalent modification of BTK by mass spectrometry [6] | also measured
1 | C=CC(=O)N1CCC[C@@H](Oc2nc(Nc3cccc(OC)c3)ncc2F)C1 [Compound I-190, (R)-1-(3-(5-fluoro-2-(3-methoxyphenylamino)pyrimidin-4-yloxy)piperidin-1-yl)prop-2-en-1-one] | – | > 10 µM | – | – | – | EC50 [1]: 10 to 100 nM; receptor occupancy at 30 mg/kg ([4]; spleen B cells harvested 2 hours after treatment, read-out: % BTK Occupancy 2 h): 18%; receptor occupancy at 30 mg/kg ([4]; spleen B cells harvested 24 hours after treatment, read-out: % BTK Occupancy 24 h): 13%
2 | Cc1cnc(Nc2ccccc2)nc1Nc1cccc(NC(=O)/C=C/CN(C)C)c1 [Compound I-38, (E)-4-(dimethylamino)-N-(3-(5-methyl-2-(phenylamino)pyrimidin-4-ylamino)phenyl)but-2-enamide] | 10 to 100 nM | 1 to 10 µM | 1 to 10 µM | reversible | – | –
3 | CC(C)=CC(=O)c1cccc(Nc2nc(Nc3cccc(OCCN(C)C)c3)ncc2F)c1 [Compound I-207] | – | 0.1 to 1 µM | 1 to 10 µM | – | completely modify | –
4 | C=CC(=O)Nc1cccc(Nc2nc(Nc3cccc(OC(F)(F)F)c3)ncc2F)c1 [Compound I-244, N-(3-(5-fluoro-2-(3-(trifluoromethoxy)phenylamino)pyrimidin-4-ylamino)phenyl)acrylamide] | < 10 nM | 0.1 to 1 µM | 1 to 10 µM | – | completely modify | EC50 [3, 12]: 1 to 10 µM
5 | 2-((4-(5-fluoro-2-(3-trifluoromethoxyphenylamino)pyrimidin-4-ylamino)phenyl)(hydroxy)methyl)acrylonitrile [Compound I-163] | – | – | – | – | completely modify | –
6 | C=CC(=O)N1CCOc2ccc(Nc3ncc(F)c(Nc4cccc(Cl)c4)n3)cc21 [Compound I-149, 1-(6-(4-(3-chlorophenylamino)-5-fluoropyrimidin-2-ylamino)-2H-benzo[b][1,4]oxazin-4(3H)-yl)prop-2-en-1-one] | – | 1 to 10 µM | – | – | completely modify | –
7 | C=CC(=O)N1CCC[C@@H](Nc2nc(Nc3cccc(OC)c3)ncc2F)C1 [Compound I-195, (R)-1-(3-(5-fluoro-2-(3-methoxyphenylamino)pyrimidin-4-ylamino)piperidin-1-yl)prop-2-en-1-one] | – | 1 to 10 µM | > 10 µM | – | completely modify | EC50 [3, 12]: > 10 µM
8 | 4-(3-acrylamidophenoxy)-2-(3-methoxyphenylamino)-pyrimidine-5-carboxylic acid phenylamide [Compound I-200] | – | – | – | – | – | IC50 [7]: < 10 nM; IC50 [8]: < 10 nM; IC50 [9]: > 10000 nM
9 | C#CCOc1cccc(Nc2ncc(C)c(Nc3cccc(NC(=O)C=C)c3)n2)c1 [Compound I-35, N-(3-(5-methyl-2-(3-(prop-2-ynyloxy)phenylamino)pyrimidin-4-ylamino)phenyl) acrylamide] | < 10 nM | 1 to 10 µM | 1 to 10 µM | irreversible | – | –

More lines, main results first:

Row | IC50 [2] | EC50 [3, 10] | EC50 [3, 11] | BTK Inhibition Type [5] | covalent modification of BTK by mass spectrometry [6] | Compound | also measured
10 | 1000 to 10000 nM | – | – | – | – | CCC(=O)Nc1cccc(Nc2nc(Nc3ccccc3)ncc2C)c1 [I^R-7, N-(3-(5-methyl-2-(phenylamino)pyrimidin-4-ylamino)phenyl) propionamide] | EC50 [1]: > 1000 nM
11 | < 10 nM | 1 to 10 µM | 1 to 10 µM | irreversible | – | C=CC(=O)Nc1cccc(Nc2nc(Nc3ccc(OC)nc3)ncc2F)c1 [Compound I-243, N-(3-(5-fluoro-2-(6-methoxypyridin-3-ylamino)pyrimidin-4-ylamino)phenyl)acrylamide] | –
12 | < 10 nM | 1 to 10 µM | 1 to 10 µM | irreversible | – | C=CC(=O)Nc1cccc(Oc2nc(Nc3ccccc3)ncc2C)c1 [Compound I-248, N-(3-(5-methyl-2-(phenylamino)pyrimidin-4-yloxy)phenyl)acrylamide] | –
13 | – | – | – | – | completely modify | C=CC(=O)N(C)Cc1ccc(Nc2nc(Nc3ccccc3)ncc2C)cc1 [Compound I-219, N-methyl-N-(4-(5-methyl-2-(phenylamino)pyrimidin-4-ylamino)benzyl)acrylamide] | –
14 | – | – | – | – | completely modify | C=C(C#N)C(O)c1cccc(Nc2nc(Nc3ccc(OCCOC)cc3)ncc2F)c1 (stereo not drawn) [Compound I-71, 2-((3-(5-fluoro-2-(4-(2-methoxyethoxy)phenylamino)pyrimidin-4-ylamino)phenyl)(hydroxy)methyl)acrylonitrile] | –
15 | < 10 nM | 0.1 to 1 µM | 1 to 10 µM | irreversible | – | C=CC(=O)Nc1cccc(Nc2nc(Nc3ccc(F)cc3)ncc2F)c1 [Compound I-247, N-(3-(5-fluoro-2-(4-fluorophenylamino)pyrimidin-4-ylamino)phenyl)acrylamide] | –
16 | < 10 nM | 1 to 10 µM | 1 to 10 µM | irreversible | – | C=CC(=O)Nc1cccc(Nc2nc(Nc3ccccc3)ncc2F)c1 [Compound I-28, N-(3-(5-fluoro-2-(phenylamino)pyrimidin-4-ylamino)phenyl)acrylamide] | –
17 | < 10 nM | 1 to 10 µM | 1 to 10 µM | irreversible | – | C=CC(=O)Nc1cccc(Nc2nc(Nc3cccc(OC)c3)ncc2C(F)(F)F)c1 [Compound I-242, N-(3-(5-trifluoromethyl-2-(3-methoxyphenylamino)pyrimidin-4-ylamino)phenyl)acrylamide] | –
18 | – | 1 to 10 µM | – | – | completely modify | C=C(C#N)C(O)c1ccc(Nc2nc(Nc3ccccc3)ncc2F)cc1 (stereo not drawn) [Compound I-161, 2-((4-(5-fluoro-2-(phenylamino)pyrimidin-4-ylamino)phenyl)(hydroxy)methyl)acrylonitrile] | EC50 [3, 12]: 1 to 10 µM
